From patent US4195101A, “2',6'-Dihydroxy-9-(2,5-dihydroxyphenyl)octylphenone and its use as an anti-oxidant” (The Lion Dentifrice Co. Ltd., priority 1977, dated 1980)

What was measured:
[1] = Test II: oxygen absorption in corn salad oil, Warburg's manometer; conditions: 0.02% by weight in corn salad oil, 60° C.
Description: (§1) The above-obtained compound was tested for its anti-oxidative effects in terms of peroxide value by the active oxygen method (AOM) and also in terms of oxygen absorption. […] Each of the tests I and II are described below together with the results thereof.
The compound of the present invention was determined for the rate of oxygen absorption in a corn salad oil to which 0.02% by weight of the compound had been added. For the purpose, 2 grams of the corn salad oil sample was taken in the receptacle of Warburg's manometer with thermostat at 60°±0.1° C., which was shaken with 110 vibrations per minute in a vibration amplitude of 60 mm. The rate of oxygen absorption was determined by reading the manometer according to the procedure set forth in "Jikken Kagaku Koza" (Lectures in Experimental Chemistry), vol. 24, p. 85, 1958, Maruzen Publishing, Japan. In this testing, the receptacle was totally wrapped with an aluminum foil to prevent the photooxidation of the oil, and mercury was used as the manometer fluid in place of Brodie's solution in order to minimize any possible influence caused by fluctuations in the atmospheric pressure.
Further, in comparison, a similar test was conducted using the same corn salad oil with addition of 0.02% by weight of BHA or without addition of any anti-oxidant.

[2] = tested on: mouse; conditions: comparison value for BHA; cited from earlier work
[3] = Test I: peroxide value of refined lard by the active oxygen method (AOM); conditions: 0.02% by weight in lard, 97.5° C.
Description: as §1
Varied amounts of the compound were admixed with and uniformly dissolved in portions of refined lard each weighing 20 g to prepare test samples. Each test sample was kept in an oil bath of thermostat at 97.5°±0.5° C., while air was forcedly blown into the lard at a rate of […].
The thus treated samples of the lard were analyzed for the peroxide value (POV for brevity) periodically or at certain intervals, in accordance with the modified Lea's method as described in "Yukagaku" (Journal of Japan Oil Chemist Society), vol. 19(15), p. 340, 1970.
In comparison, similar experiments were undertaken for the samples of the same lard with addition of BHA instead of the compound of the present invention or without addition of any anti-oxidant.

COc1ccc(O)c(C(C)(C)C)c1 [BHA, butylhydroxyanisole, reference compound]
Oxygen absorption ([1]; 85 hours): 57.6 μ1/g
Oxygen absorption ([1]; 140 hours): 116.2 μ1/g
Oxygen absorption ([1]; 166 hours): 174.8 μ1/g
Oxygen absorption ([1]; 199 hours): 219.0 μ1/g
Oxygen absorption ([1]; 263 hours): 478.9 μ1/g
Oxygen absorption ([1]; 288 hours): 697.8 μ1/g
Oxygen absorption ([1]; 320 hours): 922.9 μ1/g
Oxygen absorption ([1]; 343 hours): 1124.2 μ1/g
LD50 value [2]: 1,100 mg/kg
Peroxide value ([3]; 8 hours): 2.8 meq./kg
Peroxide value ([3]; 16 hours): 5.1 meq./kg
Peroxide value ([3]; 24 hours): 7.9 meq./kg
Peroxide value ([3]; 32 hours): 13.8 meq./kg
Peroxide value ([3]; 40 hours): 28.9 meq./kg
Peroxide value ([3]; 48 hours): 33.1 meq./kg
Peroxide value ([3]; 56 hours): 43.1 meq./kg
Peroxide value ([3]; 64 hours): 97.3 meq./kg
Peroxide value ([3]; 72 hours): 296.7 meq./kg
